Laboratory results: patent US20100160207A1, “Feedback Prodrug” (University of Georgia Research Foundation, Inc., priority 2006, published 2010)

Columns and labels:
[1] = Self-decomposition half-time of the intermediate released from prodrug 2 by Jack Bean mannosidase, followed by 1H NMR; type: physicochemical; conditions: phosphate/citrate buffer
Protocol: Next, the pH dependence of the self-fragmentation of intermediates 3 and 4 was investigated. It is well known that different organelles have different pH values. […] Golgi mannosidase II has been identified as a target for anti-metastatic therapy (Goss et al., Clin. Cancer Res. 1995, 1, 935; Elbein, FASEB J. 1991, 5, 3055), whereas inhibition of lysosomal mannosidase leads to the phenotype of lysosomal storage disease. […] Thus, compound 2 (0.4 mM) in sodium acetate buffers of different pH was treated with a large quantity (7 Units/mL) of Jack Bean α-mannosidase (JBM) to completely convert the prodrug into intermediate 4. Subsequently, the decomposition of 4 was monitored by ^1H NMR by integration of key signals of the intermediate and final product. […] The results of these experiments indicate that in a compartment such as the medial Golgi, which has a pH close to neutral, the decomposition of the intermediate will occur in minutes, which is probably fast enough for rebinding of the inhibitor.
Self-decomposition half-time measurements. A solution of compound 2 (0.08 μmol) and Jack Bean mannosidase (JBM) (1.4 Units) in deuterated 0.2 M phosphate/0.1 M citrate buffer (pH=4.0, 4.5, 5.0, 5.5, 6.0 or 6.5; 0.2 ml) was incubated at 37° C. or 25° C., and ^1H NMR spectra (600 MHz) were recorded at different time intervals. Relevant signals were integrated to determine the appearance of the intermediate 4 and the final product 6, and the decomposition rate.

α-glucosidase = experiment: Negative enzyme control experiment, α-glucosidase; type: biochemical; conditions: 0.1 Unit, MES buffer pH 6.8, 37° C., 20 h
Protocol: (§1) Compounds 1 and 2 were subjected to an α-glucosidase, α-fucosidase and α-galactosidase.
(§2) Negative enzyme control experiments. A solution of compound 1 or 2 (0.004 mmol) and α-glucosidase, α-galactosidase or α-L-fucosidase (0.1 Unit) in MES buffer (0.05 M; pH 6.8 for α-glucosidase, pH 6.5 for α-galactosidase or pH 5.5 for α-L-fucosidase; 1 ml) was incubated at 37° C. for 20 h, after which the reaction mixture was freezing-dried, and the solid residue was analyzed by ^1H NMR spectrometry and mass spectrometry.

[2] = molecular target: T1, human lysosomal mannosidase (HLM) (Homo sapiens, UniProt O00754); experiment: Enzymatic cleavage of prodrugs by human lysosomal mannosidase monitored by 1H NMR; type: biochemical; conditions: HLM 20 mU, 80 nmol compound, sodium acetate buffer pH 5.6, 37° C.
T1 sequence (O00754 50-1011): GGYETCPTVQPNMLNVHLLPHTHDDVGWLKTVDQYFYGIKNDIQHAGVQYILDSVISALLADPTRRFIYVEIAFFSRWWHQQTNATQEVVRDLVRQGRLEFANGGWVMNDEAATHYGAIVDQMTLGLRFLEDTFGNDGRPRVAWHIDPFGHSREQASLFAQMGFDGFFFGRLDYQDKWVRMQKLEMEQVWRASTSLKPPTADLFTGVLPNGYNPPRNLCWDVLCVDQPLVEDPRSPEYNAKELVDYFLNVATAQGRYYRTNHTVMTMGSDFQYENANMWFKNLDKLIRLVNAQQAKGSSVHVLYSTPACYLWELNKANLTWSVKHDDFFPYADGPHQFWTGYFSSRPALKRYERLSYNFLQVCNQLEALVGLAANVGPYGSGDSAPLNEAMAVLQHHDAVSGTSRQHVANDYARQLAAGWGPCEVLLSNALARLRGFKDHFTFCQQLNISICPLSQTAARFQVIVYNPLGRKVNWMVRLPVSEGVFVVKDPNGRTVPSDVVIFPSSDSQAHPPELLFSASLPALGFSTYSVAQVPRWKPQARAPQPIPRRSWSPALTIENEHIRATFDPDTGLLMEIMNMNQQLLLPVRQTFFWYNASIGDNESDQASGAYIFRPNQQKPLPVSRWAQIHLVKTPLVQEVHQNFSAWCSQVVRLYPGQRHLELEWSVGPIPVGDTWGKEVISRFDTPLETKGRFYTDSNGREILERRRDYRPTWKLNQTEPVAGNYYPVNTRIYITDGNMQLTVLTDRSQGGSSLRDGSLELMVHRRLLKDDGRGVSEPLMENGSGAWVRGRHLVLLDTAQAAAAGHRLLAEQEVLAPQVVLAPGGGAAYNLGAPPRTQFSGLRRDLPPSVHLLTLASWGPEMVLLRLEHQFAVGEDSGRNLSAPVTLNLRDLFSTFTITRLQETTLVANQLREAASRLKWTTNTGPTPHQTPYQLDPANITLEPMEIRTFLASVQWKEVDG
Protocol: HLM ([…]) was added to a solution of 2 (a) or 1 (b) ([…]) in a deuterated sodium acetate buffer (100 mM, pH, 5.6, 0.2 mL) and the enzymatic cleavage was monitored by ^1H NMR (600 MHz).
The enzymatic cleavage of 1 and 2 by human lysosomal mannosidase (HLM) was monitored by ^1H NMR (600 MHz) (Wilson et al., Org. Lett. 1999, 1, 443) Thus, HLM (20 mU) was added to a solution of 1 or 2 (80 nmol) dissolved in a deuterated sodium acetate buffer (100 mM, pH 5.6, 0.2 mL). The progress of the reaction was monitored by the integration of key signals of the starting material, the intermediate and final product. […] In this case, the released mannostatin A (5) inhibits HLM terminating further hydrolysis of 1. Mannostatin A is a potent inhibitor of retaining α-mannosidases (Ki=90 nM, HLM) (Li et al., Chem. Bio. Chem. 2004, 5, 1220) and thus the release of low concentrations of the active compound is sufficient to abolish enzyme activity.
Kinetic measurements. A solution of compound 1 or 2 (0.08 μmol) and human lysosomal mannosidase (HLM, 0.02 Unit) in deuterated sodium acetate buffer (0.1 M; pH 5.6; 0.2 ml) was incubated at 37° C., and ^1H NMR spectra (600 MHz) were recorded at different time intervals. Relevant signals were integrated to determine the rate of enzymatic hydrolysis, and the appearance of the intermediate and the final product.

[3] = Stability measurements in deuterated sodium acetate buffer by 1H NMR; type: physicochemical; conditions: 0.4 mM, sodium acetate buffer pH 4.0, 37° C., 6 days
Protocol: Stability measurements. A solution of compound 1 or 2 (0.4 mM) in deuterated sodium acetate buffer (100 mM; pH 4.0; 0.2 ml) in a NMR tube was incubated at 37° C. for 6 days. ^1H NMR spectra were recorded every day.

α-L-fucosidase = experiment: Negative enzyme control experiment, α-L-fucosidase; type: biochemical; conditions: 0.1 Unit, MES buffer pH 5.5, 37° C., 20 h
Protocol: as §1, §2

α-galactosidase = experiment: Negative enzyme control experiment, α-galactosidase; type: biochemical; conditions: 0.1 Unit, MES buffer pH 6.5, 37° C., 20 h
Protocol: as §1, §2

[4] = molecular target: T1, human lysosomal mannosidase (HLM); experiment: Inhibition of human lysosomal mannosidase; type: biochemical
MDAY-D2 lymphoma cells = experiment: Inhibition of cell surface polylactosamine biosynthesis (L-PHA lectin blot); type: cell-based; conditions: MDAY-D2 cells cultured for two days
Protocol: MDAY-D2 cells were cultured for 2 days in the absence (control) or presence of different concentrations of compounds 14 (a) or 15 (b). Cellular proteins (10 μg) were subjected to SDS-PAGE and polylactosamine was visualized using a fluorescein labeled L-PHA lectin (upper part figure). Fluorescence bands were scanned by laser beam densitometry, and the relative intensity depicted (lower part figure).
It is known that the metastatic MDAY-D2 lymphoma cell line over-expresses the enzyme N-acetyl glucosaminyltransferase V (GnTV) (Goss et al., Clin. Cancer Res. 1995, 1, 935). […] Subsequently, the presence of polylactosamine linked to proteins was determined by analyzing cell lysates by Western blotting using a fluorescein labeled PHA lectin (Dennis et al., Cancer Res. 1990, 50, 1867).
Cell maintenance. […] New batches of frozen cell stock were grown up every 2 months and growth morphology was evaluated.
Inhibition of cell surface polylactosamine biosynthesis. […] Protein concentrations were determined using the BCA reagent (Pierce) and cellular proteins (10 μg) were separated by SDS-PAGE using 4-20% linear gradient polyacrylamide gels (Bio-Rad). […] Fluorescence bands were imaged at 495 nm (absorbance)/520 nm (emission) and the intensity scanned by laser beam densitometry (Typhoon 9410 Imager; Amersham Biosciences).

[5] = molecular target: T1, human lysosomal mannosidase (HLM); conditions: Li et al., Chem. Bio. Chem. 2004; cited from earlier work

In the case of `O=C(NC1C(O)C(O)C(O)C1O)OCc1ccc(O[C@H]2O[C@H](CO)[C@@H](O)[C@H](O)[C@@H]2O)cc1` (stereo partly drawn) [Compound 2, (1,4/2,3,5)-5-[4-(α-D-mannopyranosyloxy)-benzyloxycarbonyl]amino-1,2,3,4-cyclopentanetetrol], the half-life of self-fragmentation ([1]; pH 4.0, 25° C.) is reported as 46.67 h, the half-life of self-fragmentation ([1]; pH 4.0, 37° C.) is reported as 8 h and the half-life of self-fragmentation ([1]; pH 4.5, 37° C.) is reported as 4.5 h. It also gave a half-life of self-fragmentation ([1]; pH 5.0, 37° C.) of 1.67 h, a half-life of self-fragmentation ([1]; pH 5.5, 37° C.) of 0.75 h and a half-life of self-fragmentation ([1]; pH 6.0, 37° C.) of 0.267 h. The half-life of self-fragmentation ([1]; pH 6.5, 25° C.) was 0.75 h, the half-life of self-fragmentation ([1]; pH 6.5, 37° C.) was 0.15 h and the “decomposition by α-glucosidase” value (α-glucosidase) was “No decomposition of product was observed”. The “enzymatic hydrolysis of the prodrug by HLM” value [2] was “progressed to completion”, the decomposition in buffer [3] was “No decomposition of product was observed” and the “decomposition by α-L-fucosidase” value (α-L-fucosidase) was “No decomposition of product was observed”. For the same compound, the “decomposition by α-galactosidase” value (α-galactosidase) was “No decomposition of product was observed”.
For `NC1C(O)C(O)C(O)C1O` (centres unmarked) [Compound 6, aminocyclopentitetrol], the “inhibition of HLM” value [4] was “not an inhibitor of HLM”.
For `CSC1C(NC(=O)OCc2ccc(O[C@H]3O[C@H](COC(C)=O)[C@@H](OC(C)=O)[C@H](OC(C)=O)[C@@H]3OC(C)=O)cc2)C(OC(C)=O)C(OC(C)=O)C1OC(C)=O` (stereo partly drawn) [Compound 14, 1D-(1,2,3,4/5)-4-[4-(2,3,4,6-tetra-O-acetyl-α-D-mannopyranosyloxy)-benzyloxycarbonyl]amino-1,2,3-tri-O-acetyl-5-(methylsulfanyl)cyclopentane-1,2,3-triol], the “reduction in fluorescein labeling (polylactosamine)” value (MDAY-D2 lymphoma cells; 1 μM) was 50%.
For `CC(=O)OC[C@H]1O[C@H](Oc2ccc(COC(=O)NC3C(OC(C)=O)C(OC(C)=O)C(OC(C)=O)C3OC(C)=O)cc2)[C@@H](OC(C)=O)[C@@H](OC(C)=O)[C@@H]1OC(C)=O` (stereo partly drawn) [Compound 15, (1,4/2,3,5)-5-[4-(2,3,4,6-tetra-O-acetyl-α-D-mannopyranosyloxy)-benzyloxycarbonyl]amino-1,2,3,4-tetra-O-acetyl-1,2,3,4-cyclopentanetetrol], the “inhibitory activity on polylactosamine formation” value (MDAY-D2 lymphoma cells; 0.1-100 μM) was “did not display any inhibitory activity”.
In the case of `CS[C@@H]1[C@@H](N)[C@@H](O)[C@@H](O)[C@H]1O` [Mannostatin A, mannostatin A], the Ki [5] is listed as 90 nM.
